Measured values taken from ChEMBL document CHEMBL4665707, “Lung Protection by Cathepsin C Inhibition: A New Hope for COVID-19 and ARDS?” (J Med Chem, 2020).

Columns and labels:
Dipeptidyl peptidase 1 = Dipeptidyl peptidase 1 (Homo sapiens, UniProt P53634); assay: Inhibition of human cathepsin C
[1] = Reduction in whole blood neutrophil elastase activity in healthy human subjects at 25 mg dosed daily via oral route; assay type: functional
[2] = Reduction in whole blood neutrophil elastase activity in healthy human subjects at 40 mg dosed daily via oral route; assay type: functional
[3] = Reduction in whole blood neutrophil elastase activity in healthy human subjects at 10 mg dosed daily via oral route; assay type: functional

Chain of Dipeptidyl peptidase 1 (P53634 25-134 limits assumed): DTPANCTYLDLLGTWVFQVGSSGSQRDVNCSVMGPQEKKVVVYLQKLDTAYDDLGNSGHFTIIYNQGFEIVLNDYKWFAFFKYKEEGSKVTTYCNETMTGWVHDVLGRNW
Chain of Dipeptidyl peptidase 1 (P53634 231-394 limits assumed): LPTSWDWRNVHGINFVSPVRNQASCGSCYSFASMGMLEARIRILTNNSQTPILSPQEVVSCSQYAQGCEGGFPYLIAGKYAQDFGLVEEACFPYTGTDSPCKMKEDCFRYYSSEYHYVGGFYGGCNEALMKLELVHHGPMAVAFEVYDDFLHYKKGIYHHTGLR
Chain of Dipeptidyl peptidase 1 (P53634 395-463 limits assumed): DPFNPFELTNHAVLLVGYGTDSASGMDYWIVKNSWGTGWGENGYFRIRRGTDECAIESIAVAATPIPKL

Structure (SMILES)	IC50 (Dipeptidyl peptidase 1) [nM]	inhibition (INH) [1] [%]	inhibition (INH) [2] [%]	inhibition (INH) [3] [%]
CC[C@H](N)C(=O)N[C@]1(C#N)C[C@@H]1c1ccc(-c2ccc(S(=O)(=O)N3CCN(C)CC3)cc2)cc1	15			
Cn1c(=O)oc2ccc(-c3ccc(C[C@@H](C#N)NC(=O)[C@@H]4CNCCCO4)cc3)cc21 [BRENSOCATIB]		49	59	30
